Series [1] is described as follows: Metabolic stability in human liver microsomes assessed as compound remaining at 1 uM after 15 mins. The class given is ADME, Microsome. Particulars: read-out: Stability. (In general: Liver microsomes are a subcellular fraction often used to study metabolism.)
A short description of series [2]: Metabolic stability in Sprague-Dawley rat liver microsomes assessed as compound remaining at 1 uM after 15 mins. It is filed as ADME, Microsome. Particulars: read-out: Stability.
Series [3] in a line: Half life in BALB/C mouse plasma at 5 mg/kg, iv. It is filed as ADME, organism-based. Details: dose 5 mg/kg, route intravenous.
The nature of series [4]: Metabolic stability in CD-1 mouse liver microsomes assessed as compound remaining at 1 uM after 15 mins. The following applies: read-out: Stability. It is filed as ADME, Microsome.
Series [5] in a line: Plasma clearance in BALB/C mouse at 5 mg/kg, iv. Further details: dose 5 mg/kg, route intravenous. The class given is ADME, organism-based.

Take `COc1cc(NCC2CCNCC2)nc2c1nnn2-c1cccc(OC(F)(F)F)c1`: the remaining at […], 1 µM worked out at 97% in series [1], 91% in series [2] and 80% in series [4]. The half-life in series [3] is 57 min. Moreover, the clearance in series [5] is 54.7 mL/min/kg.

The term half-life denotes the time needed for the level to fall by half in the phase considered. A high value points to slow loss. Broadly, the clearance is the rate of elimination divided by the concentration.

These data come from ChEMBL document CHEMBL1949661, “Hit to lead evaluation of 1,2,3-triazolo[4,5-b]pyridines as PIM kinase inhibitors” (Bioorg Med Chem Lett, 2012).
